# Assay results reported in publication PMC10583824, “The rational design of ARUK2007145, a dual inhibitor of the α and γ isoforms of the lipid kinase phosphatidylinositol 5-phosphate 4-kinase (PI5P4K)” (RSC Medicinal Chemistry, 2023).
# Assays:
# PI5P4Kα [1] = target: T1, PI5P4Kα (Homo sapiens, UniProt P48426); details: for PI5P4Kα pIC50: ADP-Glo, footnote a: inconsistent replicates, value shown is upper limit; for ADP-Glo pIC50 PI5P4Kα: Table S1, two decimals, asterisk not explained
# T1 sequence (P48426 1-406): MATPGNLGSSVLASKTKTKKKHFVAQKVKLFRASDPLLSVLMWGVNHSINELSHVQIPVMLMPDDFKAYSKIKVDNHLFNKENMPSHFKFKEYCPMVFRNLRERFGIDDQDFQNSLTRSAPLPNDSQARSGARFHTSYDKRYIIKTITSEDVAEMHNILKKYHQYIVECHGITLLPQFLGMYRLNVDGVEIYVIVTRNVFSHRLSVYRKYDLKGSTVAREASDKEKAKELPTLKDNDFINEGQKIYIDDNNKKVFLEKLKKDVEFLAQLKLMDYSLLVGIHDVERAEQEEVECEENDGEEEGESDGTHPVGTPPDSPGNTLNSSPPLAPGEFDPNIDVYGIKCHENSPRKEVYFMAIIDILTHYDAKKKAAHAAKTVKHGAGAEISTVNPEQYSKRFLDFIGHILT
# PI5P4Kγ+ [2] = details: ratio PI5P4Kα IC50 / PI5P4Kγ+ IC50, ADP-Glo
# PI5P4Kα [3] = target: T1, PI5P4Kα; experiment: biochemical
# PI5P4Kγ+ [4] = target: T2, PI5P4Kγ+ (Homo sapiens, UniProt Q8TBX8, D138G/D197E/E133P/E135D/E153T/E196G/G139A/N195G/S132L/S134N); experiment: biochemical
# T2 sequence (Q8TBX8 with tags, fused parts or gaps INS131LPN/S132D/E133S/S134Q/E135A/G136R/D138G/G139A/E153T/N195G/E196G/D197E): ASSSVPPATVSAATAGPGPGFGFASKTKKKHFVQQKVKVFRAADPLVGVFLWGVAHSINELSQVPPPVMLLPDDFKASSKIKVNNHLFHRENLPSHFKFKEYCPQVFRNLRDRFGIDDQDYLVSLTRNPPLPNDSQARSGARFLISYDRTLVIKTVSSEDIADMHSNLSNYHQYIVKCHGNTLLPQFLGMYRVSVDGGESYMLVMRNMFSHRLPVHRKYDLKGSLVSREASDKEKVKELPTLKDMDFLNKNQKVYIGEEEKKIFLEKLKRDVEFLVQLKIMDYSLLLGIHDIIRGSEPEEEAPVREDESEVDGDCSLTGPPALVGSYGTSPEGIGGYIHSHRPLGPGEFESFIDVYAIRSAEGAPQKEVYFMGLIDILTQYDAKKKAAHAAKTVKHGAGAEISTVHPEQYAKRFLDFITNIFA
# [5] = Turbidimetric aqueous solubility; assay type: physicochemical; details: pH 7.4, turbidimetric
# Method: (§1) ADMET experimental methods […]
# Turbidimetric aqueous solubility: analysis was performed by Cyprotex Discovery. Compound in DMSO at 10 mM was serially diluted to solutions of 0.1, 0.3, 1 and 3 mM in DMSO, then further diluted 1 in 100 in buffer (0.01 M PBS, pH 7.4, 1% DMSO final). 7 replicate wells of each dilution were equilibrated for 2 hours at 37 °C before absorbance is measured at 620 nm. The solubility is estimated from the concentration of test compound that produces an increase in absorbance above vehicle control (1% DMSO in buffer). […]
# [6] = Mouse liver microsome stability; assay type: in vitro ADME; details: mouse liver microsomes half-life; read-out: MLM t½
# Method: as §1
# Mouse Microsomal stability: analysis was performed by Cyprotex Discovery. Briefly, test compounds in DMSO
# protein/mL) in the presence of NADPH (1 mM) at 37 °C. Aliquots were taken at time intervals (0, 5, 15, 30 and
# compound remaining, allowing the determination of the half-life for the compound.
# MDCK-MDR1 cells = experiment: MDR1-MDCK bi-directional permeability and efflux; details: MDCK-MDR1 cells; A2B; 10 µM
# Method: MDR1-MDCK Permeability (bi-directional): was performed by Cyprotex Discovery. Briefly, compounds were administered at 10 µM (1% DMSO final) to the apical or basolateral side of a confluent monolayer of MDR1-MDCK cells, then incubated at 37 °C for 60 minutes before appearance on the opposite side of the monolayer was determined LC-MS/MS. The efflux ratio (ER) is calculated from the ratio of B-A to A-B permeabilities.
# PI5P4Kβ = target: T3, PI5P4Kβ (Homo sapiens, UniProt P78356); experiment: PI5P4Kβ ADP-Glo kinase assay
# T3 sequence (P78356 1-416): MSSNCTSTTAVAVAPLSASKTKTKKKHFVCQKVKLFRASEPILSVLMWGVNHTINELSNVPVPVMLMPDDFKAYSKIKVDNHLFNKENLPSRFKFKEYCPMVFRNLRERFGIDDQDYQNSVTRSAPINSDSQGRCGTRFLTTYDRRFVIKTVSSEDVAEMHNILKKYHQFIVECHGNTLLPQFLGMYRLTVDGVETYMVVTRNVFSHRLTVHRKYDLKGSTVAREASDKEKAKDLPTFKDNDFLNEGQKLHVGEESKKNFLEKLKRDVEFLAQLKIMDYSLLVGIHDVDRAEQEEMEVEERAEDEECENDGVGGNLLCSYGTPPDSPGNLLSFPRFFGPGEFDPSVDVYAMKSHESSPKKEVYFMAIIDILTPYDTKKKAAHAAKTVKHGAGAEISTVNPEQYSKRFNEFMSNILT
# PI5P4Kγ-WT = target: T4, PI5P4Kγ-WT (Homo sapiens, UniProt Q8TBX8); experiment: InCELL Pulse cellular target engagement (thermal stabilisation) assay; details: Hek293 cells stably expressing ePL-tagged PI5P4Kγ
# T4 sequence (Q8TBX8 1-421): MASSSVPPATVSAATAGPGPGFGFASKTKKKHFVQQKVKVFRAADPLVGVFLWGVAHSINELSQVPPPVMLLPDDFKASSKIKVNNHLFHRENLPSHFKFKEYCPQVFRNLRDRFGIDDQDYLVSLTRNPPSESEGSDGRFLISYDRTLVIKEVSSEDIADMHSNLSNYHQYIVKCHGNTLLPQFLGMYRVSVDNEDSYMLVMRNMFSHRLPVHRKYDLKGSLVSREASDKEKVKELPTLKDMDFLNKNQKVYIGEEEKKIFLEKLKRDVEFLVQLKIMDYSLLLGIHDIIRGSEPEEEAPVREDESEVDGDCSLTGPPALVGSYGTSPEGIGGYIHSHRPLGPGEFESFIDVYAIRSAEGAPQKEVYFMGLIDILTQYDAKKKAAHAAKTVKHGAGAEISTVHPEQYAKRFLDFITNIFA
# [7] = ADP-Glo pIC50 PI5P4Kα, Table S1, two decimals, asterisk not explained
# [8] = ADP-Glo pIC50 PI5P4Kγ+, Table S1, two decimals, asterisk not explained
# [9] = PI5P4Kγ+ pIC50, ADP-Glo, footnote a: inconsistent replicates, value shown is upper limit
# [10] = PI5P4Kα pIC50, ADP-Glo, footnote a: inconsistent replicates, value shown is upper limit
Structure (SMILES),PI5P4Kα pIC50 (PI5P4Kα [1]),Fold-selectivity (α IC50/γ IC50) (PI5P4Kγ+ [2]),IC50 (PI5P4Kα [3]; [7]) [nM],IC50 (PI5P4Kγ+ [4]; [8]) [nM],IC50 (PI5P4Kγ+ [4]; [9]) [nM],solubility at 2 h [5] [µM],half-life at 1 µM [6] [min],P app (A2B) (MDCK-MDR1 cells),ADP-Glo pIC50 PI5P4Kα (PI5P4Kα [1]),IC50 (PI5P4Kα [3]; [10]) [nM],ADP-Glo pIC50 PI5P4Kβ (PI5P4Kβ),InCELL Pulse pIC50 PI5P4Kγ-WT (PI5P4Kγ-WT)
CS(=O)(=O)c1ccc(Nc2ncnc3sc(-c4cccnc4)cc23)cc1 [Compound 9],5.3,130,4570,34.7,31.6,,,,,,,
Cc1ncccc1-c1cc2ncnc(Nc3ccc(N4CCCC4=O)cc3)c2s1 [Compound 42],7.0,,112,8.32,7.94,10,5.39,3.15 10^−6 cm s^−1,,,,
COc1cnccc1-c1cc2c(Nc3ccc(S(C)(=O)=O)cc3)ncnc2s1 [Compound 11],,79,,32.4,≥ 31.6,,,,5.58,≥ 2510,,
Cc1cccc(Nc2ncnc3sc(-c4cccnc4C)cc23)c1 [Compound 21],5.5,0.63,3550,5250,5010,,,,,,,
CS(=O)(=O)c1ccc(Nc2ncnc3sc(-c4cccnc4Cl)cc23)cc1 [Compound 15],6.2,,708,12.9,12.6,3,383,4.73 10^−6 cm s^−1,,,4.9,7.1
Cc1cnccc1-c1cc2c(Nc3ccc(S(C)(=O)=O)cc3)ncnc2s1 [Compound 10],6.2,,708,12.9,12.6,30,9.23,3.13 10^−6 cm s^−1,,,4.9,7.7
Cc1ncccc1-c1cc2c(Nc3ccc(S(C)(=O)=O)cc3)ncnc2s1 [Compound 17],6.0,,1120,20.9,20,10,35.5,1.33 10^−6 cm s^−1,,,4.7,7.3
CSc1ccc(Nc2ncnc3cc(-c4cccnc4Cl)sc23)cc1 [Compound 39],7.3,,46.8,8.71,7.94,10,0.44,12.9 10^−6 cm s^−1,,,,7.3
Cn1cc(-c2cc3c(Nc4ccc(S(C)(=O)=O)cc4)ncnc3s2)cn1 [Compound 8],5.2,,,36.3,39.8,30,73.3,2.88 10^−6 cm s^−1,,,4.9,6.7
CS(=O)(=O)c1ccc(Nc2ncnc3sc(-c4ccncc4)cc23)cc1 [Compound 6],5.9,63,1410,22.4,20,,,,,,,
CSc1ccc(Nc2ncnc3sc(-c4cccnc4Cl)cc23)cc1 [Compound 28],6.6,12,229,18.6,20,,,,,,,
CS(=O)(=O)c1ccc(Nc2ncnc3sc(-c4ccccc4)cc23)cc1 [Compound 5],,,,,,1,,6.23 10^−6 cm s^−1,,,,
CS(=O)(=O)c1ccc(Nc2ncnc3sc(-c4ccnc(Cl)c4)cc23)cc1 [Compound 13],,130,,64.6,63.1,,,,5.08,≥ 7940,,
CS(=O)(=O)c1ccc(Nc2ncnc3sc(-c4cn[nH]c4)cc23)cc1 [Compound 7],5.9,79,,15.5,15.8,,,,5.88,,,
CSc1ccc(Nc2ncnc3sc(-c4cnoc4)cc23)cc1 [Compound 29],6.6,6.0,,42.7,39.8,,,,6.59,,,
CSc1ccc(Nc2ncnc3sc(-c4cccnc4C)cc23)cc1 [Compound 25],6.6,5.0,282,46.8,50.1,,,,,,,
CCc1ccc(Nc2ncnc3sc(-c4cccnc4C)cc23)cc1 [Compound 23],6.2,1.6,,389,398,,,,6.22,,,
CSc1ccc(Nc2ncnc3sc(-c4c(C)noc4C)cc23)cc1 [Compound 30],6.8,6.3,,24.5,25.1,,,,6.81,,,
CSc1ccc(Nc2ncnc3sc(-c4ccncc4C)cc23)cc1 [Compound 26],6.9,,135,19.5,20,3,0.94,3.7 ^d 10^−6 cm s^−1,,,,
COc1ccc(Nc2ncnc3sc(-c4ccncc4C)cc23)cc1 [Compound 27],6.2,1.1,708,661,631,,,,,,,
CS(=O)(=O)c1ccc(Nc2ncnc3cc(-c4cccnc4Cl)sc23)cc1 [Compound 37],6.5,,355,11.7,12.6,10,70.8,1.33 10^−6 cm s^−1,,,,7.4
